Measured values as given in US20220096515A1, “Methods and Formulations for Preventing Neurological or Psychiatric Disorders” (Huntington Medical Research Institutes, priority 2020, published 2022).

Tests used:
Type in all cases: in vivo, mouse
[1] = tested on: Gabrb3^ECKO endothelial cells; assay: GABA secretion by ELISA after prenatal treatment
Protocol: ELISA: Periventricular endothelial cells were prepared after the NAD^+ treatment paradigm, or after the treatment with purinergic receptor agonists/antagonists, and seeded in 12 well culture plates at 0.1×10^6 cells/well. Supernatants from endothelial cell cultures were collected after 96 hours and stored at −80° C. for ELISA. GABA concentrations were quantitatively determined by competitive ELISA according to the manufacturers' protocol (GABA Research ELISA kits, Labor Diagnostica Nord, Germany), and absorbance was measured using a multiplate microplate fluorescence reader (Molecular Devices, CA) at 450 nm.
Endothelial cell derived GABA plays dual roles in the embryonic forebrain. It not only activates a positive feedback cycle in endothelial cells that stimulates angiogenesis, but also is an essential chemo-attractive and guidance cue for promotion of long-distance migration of GABAergic interneurons. […] Since, Gad1 and Gad2 were rescued in Gabrb3^ECKO endothelial cells by the prenatal NAD^+ treatment (FIGS. 10H-10I), it was tested whether GABA expression was rescued in Gabrb3^ECKO endothelial cells (FIGS. 11A-11C). Control endothelial cells typically form tight networks or clusters under normal culture conditions. […] Next, we investigated the secretion of GABA by ELISA in the three groups. […]

Gabrb3^ECKO mice [2] = assay: Open field locomotor activity; conditions: 60 minutes; between the three groups
Protocol: (§1) Behavioral Experiments: Mice were housed in our animal facility with a 12-hour light cycle with ad libitum access to food and water. Offspring stayed with their mothers until weaning at PND 21 after which males and females were separated. Before all behavioral testing, mice were acclimated to the testing room for 1 hour. Behavioral assays were performed according to established protocols referenced here: self-grooming, light-dark box, tail suspension test, Y-maze, open field locomotion activity, three chamber social interaction test and nest building with nestlets and with shredded paper. Both males and females were used for all behavioral assays. Experimenters scoring behaviors were blinded to the genotypes and treatment. Sample sizes for each assay are noted in figure legends.
Anxiety was next assessed with the classic light-dark transition test which triggers a struggle between the desires to explore a novel environment versus natural aversion of a brightly illuminated open space. […] The Y maze spontaneous alternation test was used to evaluate for spatial learning and memory in the three groups of mice. After introduction to the center of the maze, the mice were given free access to all three arms. […] The total number of arm entries and the sequence of entries are recorded in order to calculate the percentage of alternation. […]

Gabrb3^ECKO mice [3] = assay: Nest building (nestlets and shredded paper)
Protocol: as §1
Therefore, behavioral tests were performed to screen for stress, anxiety, locomotion, cognition, and sociability in saline-treated Gabrb3^fl/fl mice, saline-treated Gabrb3^ECKO mice and NAD^+-treated Gabrb3^ECKO mice. Mice from saline and NAD^+-treated groups were housed individually in cages containing wood chip bedding and two nestlets (pressed cotton) (FIGS. 16A-16D) or more naturalistic material like shredded paper strips (FIGS. 16E-16H). […] This rescue of home cage social behavior was a robust indication of well-being in NAD^+-treated Gabrb3^ECKO mice. […]

[4] = tested on: Gabrb3^ECKO telencephalon; assay: Microarray gene expression profile of MGE and striatal tissue at E18
Protocol: Gene expression profile analysis: RNA samples were prepared from saline-treated Gabrb3^fl/fl, saline-treated Gabrb3^ECKO and NAD^+-treated Gabrb3^ECKO groups from three different brain pools. Total RNA from each of the samples was extracted by using the PicoPure RNA Isolation kit (Arcturus) following the supplier's protocol. Microarray was performed with Mouse Gene 2.0 ST Array (Affymetrix) at the Boston University Microarray & Sequencing Resource, Boston, MA. Mouse Gene 2.0 ST CEL files were normalized to produce gene-level expression values using the implementation of the Robust Multiarray Average (RMA) in the affy package (version 1.36.1) included in the Bioconductor software suite (version 2.11). Principal component analysis (PCA) was analyzed and visualized using Transcriptome Analysis Console 4.0 (Affymetrix). Heatmap visualization and analysis were performed using Morpheus (Broad Institute, Boston, Mass., USA; software.broadinstitute.org/GENE-E/), and ranked by t-test statistics. Violin plot visualization was generated with Z-score using GraphPad Prism v8.0 (GraphPad Software, La Jolla Calif. USA). The gene ontology for gene enrichment study was performed in three GO TERM annotation categories by using the Database for Annotation, Visualization and Integrated Discovery (DAVID) v6.8. Mouse Genome Informatics (MGI) (GO TERM structure categories: cerebral cortex interneuron migration; GABAergic neuron differentiation; interneuron development; MGE derived cells).
In this exemplary embodiment, to gain deeper insights into NAD^+ mediated specific actions in the subcortical telencephalon, a micro-dissection of the MGE and striatal tissue from telencephalic slices of saline-treated Gabrb3^fl/fl mice, saline-treated Gabrb3^ECKO mice, and NAD^+-treated Gabrb3^ECKO mice at E18 was performed. RNA was further extracted, and microarray hybridization on Mouse Gene 2.0 ST arrays (Affymetrix) was performed for Subsequent gene expression analysis (FIG. 7A). Principal component analysis (PCA) plots depicted strict clustering of triplicates from the three samples in the 3D PCA table (FIG. 8A). Differentially expressed genes (fold change cut off ≥+/−50%) in the three groups were compared and represented as heat maps (FIGS. 7B-7C). […] Genes were further classified into specific categories that are essential for embryonic forebrain development: angiogenesis, neurogenesis, GABA signaling and GABA transcription related genes, and the top differentially expressed genes in each category are shown (FIGS. 9A-9E). […] Additionally, differential expression of 10 marker genes in angiogenesis and GABAergic neuron categories in saline-treated Gabrb3^fl/fl, saline-treated Gabrb3^ECKO, and NAD^+-treated Gabrb3^ECKO groups were represented as violin plots (FIGS. 7D-7G).

In the case of `NC(=O)c1ccc[n+]([C@@H]2O[C@H](COP(=O)([O-])OP(=O)(O)OC[C@H]3O[C@@H](n4cnc5c(N)ncnc54)[C@H](O)[C@@H]3O)[C@@H](O)[C@H]2O)c1` [NAD^+], the “GABA secretion (ELISA)” value [1] is reported as “rescued”, the “open field locomotor activity” value (Gabrb3^ECKO mice [2]) is reported as “no significant differences” and the nest building ability (Gabrb3^ECKO mice [3]) is reported as “significant improvement in their nest building ability”. The “GABA neuronal subtype and development genes downregulated in Gabrb3^ECKO (Calb2, Sst, Calb1, Sirt2, Ascl1, Nr2f2, Bdnf, Arx, Sox2)” value ([4]; E18) was “rescued”, the “GABAergic pathway regulatory and axon guidance genes upregulated in Gabrb3^ECKO (Dlx4, Sirt1, Drp2, Foxg1, Daxx, Ablim1, Nrg3)” value ([4]; E18) was “restored to normal expression levels” and the “angiogenesis genes downregulated in Gabrb3^ECKO (Fgfr3, Thbs1, Serpinf1, Tbx1, Angpt1, Mdk, Plxdc1, Efna1, Tspan12)” value ([4]; E18) was “restored to normal levels”. For the same compound, the “genes related to inflammation (upregulated in saline-treated Gabrb3^ECKO)” value ([4]; E18) was “restored to normal levels”, the “vascular/angiogenesis genes upregulated in Gabrb3^ECKO (Fgf6, Flt1, Hand2, Egf, Itgb3, Plg, Epas1, Bai1, Col4a3, Eng)” value ([4]; E18) was “restored to normal expression levels” and the “purinergic receptor signaling genes (microarray)” value ([4]; vs saline-treated Gabrb3^ECKO group) was “notable change in purinergic receptor signaling genes”. For the same compound, the “gene expression profile (heat map clusters)” value ([4]; vs saline-treated Gabrb3^ECKO, fold change cut off ≥+/−50%) was “shift in the gene expression profile”.
